From US20210364519A1, “DETERMINING CANCER RESPONSIVENESS TO TREATMENT” (Queensland University of Technology, priority 2018, published 2021)

Assays:
[1] = test system: cell lines depleted of SASH1; experiment: Olaparib sensitivity of cell lines depleted of SASH1 using siRNA; format: cell-based; conditions: number of cell lines tested
Description: FIG. 5. Depletion of SASH1 increases cancer cell sensitivity to Olaparib. A) Cell lines depleted of SASH1 have a reduced IC50 to Olaparib. B) Combined data of cell lines with SASH1 depletion showing a significant reduction in IC50 to Olaparib.

U2OS cells = experiment: Olaparib sensitivity of stable U2OS cell line ectopically expressing recombinant SASH1; format: cell-based
Description: FIG. 6. Over expression of SASH1 infers resistance to Olaparib in U2OS cells.
Further to this, we made a stable U2OS cell line ectopically expressing recombinant SASH1.

SMILES: O=C(c1cc(Cc2n[nH]c(=O)c3ccccc23)ccc1F)N1CCN(C(=O)C2CC2)CC1 [Olaparib]
- cell lines with increase in sensitivity to Olaparib after depletion of SASH1 [1]: 9 out of 12
- effect of SASH1 over-expression on Olaparib response (U2OS cells): sufficient to induce resistance
